Experimental data: the supplement of paper PMC10627819

Columns and labels:
S. pneumoniae D39V [1] = assay: fitness (endpoint OD595 vs no drug) (fraction); higher = more growth
Procedure, shortened: (§1)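 Fitness is computed from the optical density at which cultures reach stationary phase, divided by the robust mean of no-drug control wells. Any value above 1 is set to 1. Cultures started at OD595 0.01 in 384-well plates with TSB, LB Lennox or CY at 37 °C, and OD595 was read every 30 min for 14 h against a first-reading background.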

S. aureus Newman [2] = assay: as above
Procedure, shortened: as §1

S. aureus DSM 20231 [3] = assay: as above
Procedure, shortened: as §1

B. subtilis 168 [4] = assay: as above
Procedure, shortened: as §1

S. pneumoniae D39V [5] = assay: Bliss interaction score (quartile over a dose matrix) (fitness difference); higher = more antagonism (negative = synergy)
Procedure, shortened: (§2)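 Each plate was normalised to the robust mean of its own no-drug wells, using OD595 at entry into stationary phase, with values capped at 1. This normalised growth is the fitness value. The Bliss score is the difference between observed and product-expected fitness, with single-drug fitness inferred from the combination data and quartiles taken over technical, biological and donor/recipient replicates.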

S. aureus Newman [6] = assay: as above
Procedure, shortened: as §2

S. aureus DSM 20231 [7] = assay: as above
Procedure, shortened: as §2

B. subtilis 168 [8] = assay: as above
Procedure, shortened: as §2
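Wherever Bliss interaction score (quartile over a dose matrix) is given: first quartile when negative (synergy) and third quartile when positive (antagonism).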

CCN(CC)CCOC(=O)c1ccc(N)cc1 [Procaine] + CC1=C\[C@@H](O)CC(=O)Cc2nc(co2)C(=O)N2CCC=C2C(=O)O[C@H](C(C)C)[C@H](C)/C=C/C(=O)NC\C=C\1 [Virginiamycin M1]
fitness, one replicate
Settings | first compound 85.5 µg/mL | first compound 171 µg/mL | first compound 342 µg/mL
S. aureus DSM 20231 [3], partner 0.5 µg/mL | 0.82 | 0.747 | 0.842
S. aureus DSM 20231 [3], partner 1 µg/mL | 0.726 | 0.774 | 0.779
S. aureus Newman [2], partner 0.0625 µg/mL | ≥ 1 | ≥ 1 | ≥ 1
S. aureus Newman [2], partner 0.125 µg/mL | ≥ 1 | ≥ 1 | ≥ 1
S. aureus Newman [2], partner 0.25 µg/mL | ≥ 1 | ≥ 1 | ≥ 1
S. aureus Newman [2], partner 0.5 µg/mL | 0.851 | 0.766 | 0.795
S. aureus Newman [2], partner 1 µg/mL | 0.977 | ≥ 1 | 0.968
S. aureus Newman [2], partner 2 µg/mL | 0.913 | 0.91 | 0.812
S. pneumoniae D39V [1], partner 0.15 µg/mL | 0.976 | 0.936 | 0.971
S. pneumoniae D39V [1], partner 0.3 µg/mL | 0.983 | 0.941 | 0.934

fitness
Settings | first compound 85.5 µg/mL | first compound 171 µg/mL | first compound 342 µg/mL
B. subtilis 168 [4], partner 0.0625 µg/mL | 0.957 | 0.962 | 0.904
B. subtilis 168 [4], partner 0.125 µg/mL | 0.88 | 0.92 | 0.881
B. subtilis 168 [4], partner 0.25 µg/mL | 0.905 | 0.892 | 0.882
S. aureus DSM 20231 [3], partner 0.0625 µg/mL | – | 0.976 | 0.872
S. aureus DSM 20231 [3], partner 0.125 µg/mL | – | ≥ 1 | ≥ 1
S. aureus DSM 20231 [3], partner 0.25 µg/mL | 0.94 | 0.906 | 0.878
S. pneumoniae D39V [1], partner 0.5 µg/mL | ≥ 1 | ≥ 1 | ≥ 1
S. pneumoniae D39V [1], partner 1 µg/mL | ≥ 1 | ≥ 1 | ≥ 1
S. pneumoniae D39V [1], partner 2 µg/mL | 0.948 | 0.926 | 0.951

Settings | Bliss interaction score
B. subtilis 168 [8] | -0.0324
S. aureus DSM 20231 [7] | -0.0838
S. aureus Newman [6] | 0.0179
S. pneumoniae D39V [5] | 0.036

CCN(CC)CCOC(=O)c1ccc(N)cc1 [Procaine] + Cc1cc(NS(=O)(=O)c2ccc(N)cc2)no1 [Sulfamethoxazol]
fitness
Settings | B. subtilis 168 [4] | S. aureus DSM 20231 [3] | S. aureus Newman [2] | S. pneumoniae D39V [1]
first compound 85.5 µg/mL, partner 1 µg/mL | 0.909 | 0.976 | 0.999 | 0.991
first compound 85.5 µg/mL, partner 2 µg/mL | 0.88 | 0.979 | 0.984 | 0.982
first compound 85.5 µg/mL, partner 4 µg/mL | 0.905 | 0.999 | 0.959 | 0.924
first compound 171 µg/mL, partner 1 µg/mL | 0.865 | 0.992 | 0.99 | 0.979
first compound 171 µg/mL, partner 2 µg/mL | 0.836 | ≥ 1 | 0.981 | ≥ 1
first compound 171 µg/mL, partner 4 µg/mL | 0.936 | ≥ 1 | 0.937 | 0.923
first compound 342 µg/mL, partner 1 µg/mL | 0.88 | 0.944 | – | 0.979
first compound 342 µg/mL, partner 2 µg/mL | 0.78 | ≥ 1 | – | 0.974
first compound 342 µg/mL, partner 4 µg/mL | 0.918 | ≥ 1 | – | 0.908

fitness, one replicate
Settings | first compound 85.5 µg/mL | first compound 171 µg/mL | first compound 342 µg/mL
B. subtilis 168 [4], partner 0.5 µg/mL | 0.971 | 0.908 | 0.963
S. aureus Newman [2], partner 8 µg/mL | 0.88 | 0.892 | 0.934

Settings | Bliss interaction score
B. subtilis 168 [8] | -0.0492
S. aureus DSM 20231 [7] | 0.0626
S. aureus Newman [6] | 0.0323
S. pneumoniae D39V [5] | 0.0407

CCN(CC)CCOC(=O)c1ccc(N)cc1 [Procaine] + CN(N=O)C(=O)N[C@@H](C=O)[C@@H](O)[C@H](O)[C@H](O)CO [Streptozotocin]
fitness
Settings | first compound 85.5 µg/mL | first compound 171 µg/mL | first compound 342 µg/mL
S. aureus DSM 20231 [3], partner 0.15 µg/mL | 0.822 | 0.848 | 0.851
S. aureus DSM 20231 [3], partner 0.3 µg/mL | 0.724 | 0.799 | 0.786
S. aureus DSM 20231 [3], partner 0.6 µg/mL | 0.593 | 0.682 | 0.651
S. aureus Newman [2], partner 0.15 µg/mL | 0.894 | 0.85 | 0.904
S. aureus Newman [2], partner 0.3 µg/mL | 0.809 | 0.798 | 0.799
S. aureus Newman [2], partner 0.6 µg/mL | 0.624 | 0.602 | 0.617
S. pneumoniae D39V [1], partner 1.2 µg/mL | 0.977 | 0.994 | 0.963
S. pneumoniae D39V [1], partner 2.4 µg/mL | 0.994 | ≥ 1 | 0.945
S. pneumoniae D39V [1], partner 4.8 µg/mL | 0.993 | ≥ 1 | 0.961

fitness, B. subtilis 168 [4], one replicate
Settings | first compound 85.5 µg/mL | first compound 171 µg/mL | first compound 342 µg/mL
partner 0.15 µg/mL | 0.98 | 0.945 | 0.891
partner 0.3 µg/mL | 0.948 | 0.988 | 0.954
partner 0.6 µg/mL | 0.901 | 0.944 | 0.881

Settings | Bliss interaction score
B. subtilis 168 [8] | 0.0445
S. aureus DSM 20231 [7] | -0.076
S. aureus Newman [6] | 0.0489
S. pneumoniae D39V [5] | 0.0574
